# Columns and labels:
# Type in all cases: in vivo
# AVEFA (Avena fatua) [1] = assay: Pre-emergence herbicidal effect against AVEFA; conditions: 80 g/ha, scored visually after 3 weeks
# Excerpt: (§1) Seeds of monocotyledonous and dicotyledonous weed plants and crop plants are laid out in sandy loam soil in wood-fiber pots and covered with soil. The compounds of the invention, formulated in the form of wettable powders (WP) or as emulsion concentrates (EC), are then applied to the surface of the covering soil as aqueous suspension or emulsion at a water application rate equating to 600 to 800 l/ha with addition of 0.2% wetting agent. After the treatment, the pots are placed in a greenhouse and kept under good growth conditions for the trial plants. The damage to the test plants is scored visually after a test period of 3 weeks by comparison with untreated controls (herbicidal activity in percent (%): 100% activity=the plants have died, 0% activity=like control plants).
# [2] = system: ABUTH (Abutylon threophrasti); assay: Pre-emergence herbicidal effect against ABUTH; conditions: scored visually after 3 weeks
# Excerpt: as §1
# [3] = system: DIGSA (Digitaria sanguinalis); assay: Post-emergence herbicidal action against DIGSA; conditions: visual assessment after about 3 weeks
# Experimental: (§2) Seeds of monocotyledonous and dicotyledonous weed and crop plants are laid out in sandy loam soil in wood-fiber pots, covered with soil and cultivated in a greenhouse under good growth conditions. 2 to 3 weeks after sowing, the trial plants are treated at the one-leaf stage. The compounds of the invention, formulated in the form of wettable powders (WP) or as emulsion concentrates (EC), are then sprayed onto the green parts of the plants as aqueous suspension or emulsion at a water application rate equating to 600 to 800 l/ha with addition of 0.2% wetting agent. After the test plants have been left to stand in the greenhouse under optimal growth conditions for about 3 weeks, the action of the preparations is assessed visually in comparison to untreated controls (herbicidal action in percent (%): 100% activity=the plants have died, 0% activity=like control plants).
# AVEFA (Avena fatua) [4] = assay: Post-emergence herbicidal action against AVEFA; conditions: visual assessment after about 3 weeks
# Experimental: as §2
# [5] = system: ABUTH (Abutylon threophrasti); assay: Post-emergence herbicidal action against ABUTH; conditions: visual assessment after about 3 weeks
# Experimental: as §2
# [6] = system: AMARE (Amaranthus retroflexus); assay: Post-emergence herbicidal action against AMARE; conditions: visual assessment after about 3 weeks
# Experimental: as §2
# [7] = system: MATIN (Matricaria inodora); assay: Pre-emergence herbicidal effect against MATIN; conditions: scored visually after 3 weeks
# Excerpt: as §1
# VIOTR (Viola tricolor) [8] = assay: Post-emergence herbicidal action against VIOTR; conditions: visual assessment after about 3 weeks
# Experimental: as §2
# VIOTR (Viola tricolor) [9] = assay: Pre-emergence herbicidal effect against VIOTR; conditions: scored visually after 3 weeks
# Excerpt: as §1
# [10] = system: MATIN (Matricaria inodora); assay: Post-emergence herbicidal action against MATIN; conditions: visual assessment after about 3 weeks
# Experimental: as §2
# VERPE (Veronica persica) [11] = assay: Pre-emergence herbicidal effect against VERPE; conditions: scored visually after 3 weeks
# Excerpt: as §1
# SETVI (Setaria viridis) [12] = assay: Post-emergence herbicidal action against SETVI; conditions: visual assessment after about 3 weeks
# Experimental: as §2
# [13] = system: ECHCG (Echinochloa crus-galli); assay: Post-emergence herbicidal action against ECHCG; conditions: visual assessment after about 3 weeks
# Experimental: as §2
# SETVI (Setaria viridis) [14] = assay: Pre-emergence herbicidal effect against SETVI; conditions: scored visually after 3 weeks
# Excerpt: as §1
# [15] = system: AMARE (Amaranthus retroflexus); assay: Pre-emergence herbicidal effect against AMARE; conditions: scored visually after 3 weeks
# Excerpt: as §1
# VERPE (Veronica persica) [16] = assay: Post-emergence herbicidal action against VERPE; conditions: visual assessment after about 3 weeks
# Experimental: as §2
# [17] = system: PHBPU (Pharbitis purpurea); assay: Post-emergence herbicidal action against PHBPU; conditions: 80 g/ha, visual assessment after about 3 weeks
# Experimental: as §2
# [18] = system: ECHCG (Echinochloa crus-galli); assay: Pre-emergence herbicidal effect against ECHCG; conditions: scored visually after 3 weeks
# Excerpt: as §1
# LOLRI (Lolium rigidum) = assay: Post-emergence herbicidal action against LOLRI; conditions: visual assessment after about 3 weeks
# Experimental: as §2
# [19] = system: PHBPU (Pharbitis purpurea); assay: Pre-emergence herbicidal effect against PHBPU; conditions: 80 g/ha, scored visually after 3 weeks
# Excerpt: as §1
# [20] = system: DIGSA (Digitaria sanguinalis); assay: Pre-emergence herbicidal effect against DIGSA; conditions: scored visually after 3 weeks
# Excerpt: as §1
# [21] = system: POLCO (Polygonum convolvulus); assay: Post-emergence herbicidal action against POLCO; conditions: 80 g/ha, visual assessment after about 3 weeks
# Experimental: as §2
# [22] = system: ALOMY (Alopecurus myosuroides); assay: Pre-emergence herbicidal effect against ALOMY; conditions: 80 g/ha, scored visually after 3 weeks
# Excerpt: as §1
# KCHSC (Kochia scoparia) [23] = assay: Pre-emergence herbicidal effect against KCHSC; conditions: scored visually after 3 weeks
# Excerpt: as §1
# [24] = system: POLCO (Polygonum convolvulus); assay: Pre-emergence herbicidal effect against POLCO; conditions: 80 g/ha, scored visually after 3 weeks
# Excerpt: as §1
# KCHSC (Kochia scoparia) [25] = assay: Post-emergence herbicidal action against KCHSC; conditions: visual assessment after about 3 weeks
# Experimental: as §2
smiles,measurement,setting,value
C[S+]([O-])c1c(OC(F)F)ccc(C(=O)Nc2nnco2)c1Cl (racemic) [Example 1-22],Pre-emergence effect at 80 g/ha against A VEFA in %,AVEFA (Avena fatua) [1],80%
same,Pre-emergence effect at 20 g/ha against ABUTH in %,[2]; 20 g/ha,80%
same,Pre-emergence effect at 80 g/ha against ABUTH in %,[2]; 80 g/ha,100%
same,Post-emergence effect at 20 g/ha against DIGSA in %,[3]; 20 g/ha,100%
same,Post-emergence effect at 80 g/ha against DIGSA in %,[3]; 80 g/ha,100%
same,Post-emergence effect at 20 g/ha against A VEFA in %,AVEFA (Avena fatua) [4]; 20 g/ha,90%
same,Post-emergence effect at 80 g/ha against AVEFA in %,AVEFA (Avena fatua) [4]; 80 g/ha,100%
same,Post-emergence effect at 20 g/ha against ABUTH in %,[5]; 20 g/ha,100%
same,Post-emergence effect at 80 g/ha against ABUTH in %,[5]; 80 g/ha,100%
same,Post-emergence effect at 20 g/ha against AMARE in %,[6]; 20 g/ha,100%
same,Post-emergence effect at 80 g/ha against AMARE in %,[6]; 80 g/ha,100%
same,Pre-emergence effect at 20 g/ha against MATIN in %,[7]; 20 g/ha,100%
same,Pre-emergence effect at 80 g/ha against MATIN in %,[7]; 80 g/ha,100%
same,Post-emergence effect at 20 g/ha against VIOTR in %,VIOTR (Viola tricolor) [8]; 20 g/ha,100%
same,Post-emergence effect at 80 g/ha against VIOTR in %,VIOTR (Viola tricolor) [8]; 80 g/ha,100%
same,Pre-emergence effect at 20 g/ha against VIOTR in %,VIOTR (Viola tricolor) [9]; 20 g/ha,100%
same,Pre-emergence effect at 80 g/ha against VIOTR in %,VIOTR (Viola tricolor) [9]; 80 g/ha,100%
same,Post-emergence effect at 20 g/ha against MATIN in %,[10]; 20 g/ha,100%
same,Post-emergence effect at 80 g/ha against MATIN in %,[10]; 80 g/ha,100%
same,Pre-emergence effect at 20 g/ha against VERPE in %,VERPE (Veronica persica) [11]; 20 g/ha,80%
same,Pre-emergence effect at 80 g/ha against VERPE in %,VERPE (Veronica persica) [11]; 80 g/ha,90%
same,Post-emergence effect at 20 g/ha against SETVI in %,SETVI (Setaria viridis) [12]; 20 g/ha,100%
same,Post-emergence effect at 80 g/ha against SETVI in %,SETVI (Setaria viridis) [12]; 80 g/ha,100%
same,Post-emergence effect at 20 g/ha against ECHCG in %,[13]; 20 g/ha,100%
same,Post-emergence effect at 80 g/ha against ECHCG in %,[13]; 80 g/ha,100%
same,Pre-emergence effect at 20 g/ha against SETVI in %,SETVI (Setaria viridis) [14]; 20 g/ha,90%
same,Pre-emergence effect at 80 g/ha against SETVI in %,SETVI (Setaria viridis) [14]; 80 g/ha,100%
same,Pre-emergence effect at 20 g/ha against AMARE in %,[15]; 20 g/ha,100%
same,Pre-emergence effect at 80 g/ha against AMARE in %,[15]; 80 g/ha,100%
same,Post-emergence effect at 20 g/ha against VERPE in %,VERPE (Veronica persica) [16]; 20 g/ha,90%
same,Post-emergence effect at 80 g/ha against VERPE in %,VERPE (Veronica persica) [16]; 80 g/ha,100%
same,Post-emergence effect at 80 g/ha against PHBPU in %,[17],100%
same,Pre-emergence effect at 20 g/ha against ECHCG in %,[18]; 20 g/ha,90%
same,Pre-emergence effect at 80 g/ha against ECHCG in %,[18]; 80 g/ha,100%
same,Post-emergence effect at 80 g/ha against LOLRI in %,LOLRI (Lolium rigidum),90%
same,Pre-emergence effect at 80 g/ha against PHBPU in %,[19],80%
same,Pre-emergence effect at 20 g/ha against DIGSA in %,[20]; 20 g/ha,100%
same,Pre-emergence effect at 80 g/ha against DIGSA in %,[20]; 80 g/ha,100%
same,Post-emergence effect at 80 g/ha against POLCO in %,[21],90%
same,Pre-emergence effect at 80 g/ha against ALOMY in %,[22],80%
same,Pre-emergence effect at 20 g/ha against KCHSC in %,KCHSC (Kochia scoparia) [23]; 20 g/ha,100%
same,Pre-emergence effect at 80 g/ha against KCHSC in %,KCHSC (Kochia scoparia) [23]; 80 g/ha,100%
same,Pre-emergence effect at 80 g/ha against POLCO in %,[24],90%
same,Post-emergence effect at 20 g/ha against KCHSC in %,KCHSC (Kochia scoparia) [25]; 20 g/ha,100%
same,Post-emergence effect at 80 g/ha against KCHSC in %,KCHSC (Kochia scoparia) [25]; 80 g/ha,100%
